Measurements published in US11224609B2, “Mithramycin derivatives having increased selectivity and anti-cancer activity” (University of Kentucky Research Foundation, priority 2017, dated 2022).
Values joined by “and” are separate entries in the source; they are usually repeats but may differ in a detail not shown here. Equal entries are not always repeated.

Experiments:
HeLa cells = assay: 72 h GI50 assay in HeLa; conditions: read-out: HeLa GI50; 72 h growth inhibition
[1] = system: RD-ES Ewing sarcoma cells (EWS-FLI1 Type 2); assay: 72 h GI50 assay in RD-ES; conditions: read-out: RD-ES EWS-FLI1 Type 2 GI50; 72 h growth inhibition
LNCaP cells = assay: 72 h GI50 assay in LNCaP; conditions: read-out: LNCaP GI50; 72 h growth inhibition
[2] = system: Ewing sarcoma cell lines (TC-32, 5838, RD-ES, TC-71, A-673, ES-2, ES-7, ES-8); assay: Median GI50 in panel of Ewing sarcoma cell lines; conditions: for Ratio of Median GI50 non-Ewing sarcoma:Ewing sarcoma (Selectivity Index): median GI50 non-Ewing panel over Ewing panel; for Selectivity Index ratio Analogues:MTM (1): selectivity index relative to MTM (1); for GI50: read-out: Median GI50 in Ewing sarcoma cell lines, median over 8 Ewing sarcoma cell lines, 72 h
A549 cells = assay: 72 h GI50 assay in A549; conditions: read-out: A549 GI50; 72 h growth inhibition
[3] = system: VCaP prostate cancer cells (TMPRSS2-ERG); assay: 72 h GI50 assay in VCaP; conditions: for GI50: read-out: VCaP Prostate Cancer TMPRSS2-ERG GI50, 72 h growth inhibition, VCaP cells; for Ratio of median GI50 Prostate cells lacking TMPRSS2-ERG:VCaP: selectivity for VCaP over other prostate cancer cell lines
DMS 114 cells = assay: 72 h GI50 assay in DMS 114; conditions: read-out: DMS 114 GI50; 72 h growth inhibition
[4] = system: 5838 Ewing sarcoma cells (EWS-ERG); assay: 72 h GI50 assay in 5838; conditions: for GI50: read-out: 5838 Ewing Sarcoma EWS-ERG GI50, 72 h growth inhibition, 5838 cells; for Ratio of median GI50 Non-Ewing sarcoma cell lines (cf Table 3):5838: selectivity for 5838 cells
[5] = system: ES-7 Ewing sarcoma cells (EWS-FLI1 Type 4); assay: 72 h GI50 assay in ES-7; conditions: read-out: ES-7 EWS-FLI1 Type 4 GI50; 72 h growth inhibition
DU 145 cells = assay: 72 h GI50 assay in DU 145; conditions: read-out: DU 145 GI50; 72 h growth inhibition
[6] = system: ES-8 Ewing sarcoma cells (EWS-FLI1 Type 2); assay: 72 h GI50 assay in ES-8; conditions: read-out: ES-8 EWS-FLI1 Type 2 GI50; 72 h growth inhibition
PANC-1 cells = assay: 72 h GI50 assay in PANC-1; conditions: read-out: PANC-1 GI50; 72 h growth inhibition
[7] = system: PC-3 (prostate cancer, no ETS translocation) cell line; assay: 72 h growth inhibition (GI50) assay in PC-3; conditions: read-out: PC-3 Prostate cancer No ETS Translocation GI50; 72 h growth inhibition, PC-3 cells
[8] = system: TC-32 (Ewing sarcoma, EWS-FLI1 Type 1) cell line; conditions: for TC-32 Ewing sarcoma EWS-FLI1 Type 1 GI50: 72 h growth inhibition, TC-32 cells; for GI50 ratio PC-3:TC-32: selectivity, GI50 in PC-3 over GI50 in TC-32
[9] = system: prostate cell lines lacking TMPRSS2-ERG; assay: Median GI50 in prostate cell lines lacking TMPRSS2-ERG; conditions: read-out: Median GI50 in prostate cell lines, lacking TMPRSS2-ERG; unit inferred
[10] = system: TC-71 Ewing sarcoma cells (EWS-FLI1 Type 1); conditions: 72 h growth inhibition
[11] = system: A-673 Ewing sarcoma cells (EWS-FLI1 Type 1); assay: 72 h GI50 assay in A-673; conditions: read-out: A-673 EWS-FLI1 Type 1 GI50; 72 h growth inhibition
[12] = system: ES-2 Ewing sarcoma cells (EWS-FLI1 Type 3); assay: 72 h GI50 assay in ES-2; conditions: read-out: ES-2 EWS-FLI1 Type 3 GI50; 72 h growth inhibition
HCT 116 cells = assay: 72 h GI50 assay in HCT 116; conditions: read-out: HCT 116 GI50; 72 h growth inhibition
CMV promoter = CMV promoter luciferase reporter assay in stably transfected TC-32 cells (non-specific control); type: cell-based; conditions: 12 h; for CMV promoter driven luciferase signal: treated up to 10 μM
Text: Full-length NR0B1 promoter sequence was PCR amplified using Q5 high-fidelity DNA polymerase (New England Biolabs, Ipswich, Mass.) from genomic DNA of TC-32 cells and cloned into the pGLUC-Basic 2 vector (New England Biolabs, Ipswich, Mass.). XhoI and KpnI restriction sites were incorporated into the primers. After restriction enzyme (New England Biolabs, Ipswich, Mass.) digest and purification by gel electrophoresis, the target amplicon was ligated into the pGLUC-Basic 2 vector using T4 DNA ligase (Thermo Fisher Scientific, Waltham, Mass.). Chemically competent TOP10 E. coli cells were used to propagate vectors under ampicillin selection (100 μg/mL) (Thermo Fisher Scientific, Waltham, Mass.). The resulting vectors were extracted and purified using GeneJET plasmid prep kit (Thermo Fisher Scientific, Waltham, Mass.). The purified vector was transfected into TC-32 cells using lipofectamine 3000 (Thermo Fisher Scientific, Waltham, Mass.) with subsequent G418 selection (1 mg/mL) (VWR, Radnor, Pa.). Separately, TC-32 cells were transfected with pCMV-Red Firefly Vector (Thermo Fisher Scientific, Waltham, Mass.) with subsequent puromycin selection (0.1 mg/mL) (Sigma, St. Louis, Mo.) as a control.
Selected TC-32 cells, expressing either NR0B1 or CMV luciferase reporter vectors, were seeded in clear 96-well plates at a density of 10,000 cells/well. […] After a 12 h treatment, media was removed and cells were washed 3 times with DPBS (Thermo Fisher Scientific, Waltham, Mass.). Cells were directly lysed on a plate shaker for 30 min at room temperature using 100 μL of passive membrane lysis solution. Lysates (80 μL) were transferred to a white luminescence plate. Luciferase substrate, either coelenterazine or D-luciferin (50 μL of 1× solution), for NR0B1 or CMV vectors, respectively, was added in a Glomax 96 microplate luminometer (Promega, Madison, Wis.) and luminescence was immediately measured. Delay before and after injections were set to the default of 0.4 s and a 10 s integration time was used. All reagents used in this assay were from the dual luciferase reporter assay system (Promega, Madison, Wis.). Concurrently, an additional 96 well plate was seeded and treated under the exact same conditions to determine cell viability using resazurin assay. Luminescence results were normalized to cell viability.

Compound	GI50 (HeLa cells) [nM]	GI50 [1] [nM]	GI50 (LNCaP cells) [nM]	Ratio of Median GI50 non-Ewing sarcoma:Ewing sarcoma (Selectivity Index) [2]	Selectivity Index ratio Analogues:MTM (1) [2]	GI50 (A549 cells) [nM]	GI50 [3] [nM]	Ratio of median GI50 Prostate cells lacking TMPRSS2-ERG:VCaP [3]	GI50 (DMS 114 cells) [nM]	GI50 [4] [nM]	Ratio of median GI50 Non-Ewing sarcoma cell lines (cf Table 3):5838 [4]	GI50 (DU 145 cells) [nM]	GI50 [6] [nM]	GI50 (PANC-1 cells) [nM]	GI50 [7] [nM]	TC-32 Ewing sarcoma EWS-FLI1 Type 1 GI50 [8] [nM]	GI50 ratio PC-3:TC-32 [8]	TC-71 EWS-FLI1 Type 1 GI50 [10] [nM]	GI50 [11] [nM]	GI50 [12] [nM]	other results
COC(=O)C(Cc1cn(C)c2ccccc12)NC(=O)C(OC)C1Cc2cc3cc(OC4CC(OC5CC(O)C(O)C(C)O5)C(O)C(C)O4)c(C)c(O)c3c(O)c2C(=O)C1OC1CC(OC2CC(OC3CC(C)(O)C(O)C(C)O3)C(O)C(C)O2)C(O)C(C)O1 (stereo not shown) [Analogue 45]	1760	539	1860	2.4	1.6	2370	307	5.1	1050	121	13.3	761	1330	1730	1560	139	11.2	696	1010	1500	GI50 [5]: 672 nM; fold increase in selectivity ([8]; PC-3:TC-32 selectivity, comparator not stated): ~4 fold; GI50 [9]: 1560 nM; GI50 (HCT 116 cells): 826 nM
C=CCOc1ccc2[nH]cc(CC(NC(=O)C(OC)C3Cc4cc5cc(OC6CC(OC7CC(O)C(O)C(C)O7)C(O)C(C)O6)c(C)c(O)c5c(O)c4C(=O)C3OC3CC(OC4CC(OC5CC(C)(O)C(O)C(C)O5)C(O)C(C)O4)C(O)C(C)O3)C(=O)OC)c2c1 (stereo not shown) [Analogue 51]	1710	843	2230	1.1	0.7	1540	485	0.9	2840	24	22.2	298	90	532	454	53	8.6	636	272	5370	GI50 [2]: 485 nM; GI50 [5]: 1660 nM; GI50 [9]: 454 nM; GI50 (HCT 116 cells): 380 nM
COC(=O)C(Cc1c[nH]c2cc(F)ccc12)NC(=O)C(OC)C1Cc2cc3cc(OC4CC(OC5CC(O)C(O)C(C)O5)C(O)C(C)O4)c(C)c(O)c3c(O)c2C(=O)C1OC1CC(OC2CC(OC3CC(C)(O)C(O)C(C)O3)C(O)C(C)O2)C(O)C(C)O1 (stereo not shown) [Analogue 56]	1550	1000	1960	0.9	0.6	941	319	0.6	2470	466	0.9	157	401	386	187	27	6.9	640	262	3310	GI50 [2]: 466 nM; GI50 [5]: 1660 nM; GI50 [9]: 187 nM; GI50 (HCT 116 cells): 419 nM
COC(=O)C(Cc1ccccc1)NC(=O)C(Cc1c[nH]c2ccccc12)NC(=O)C(OC)C1Cc2cc3cc(OC4CC(OC5CC(O)C(O)C(C)O5)C(O)C(C)O4)c(C)c(O)c3c(O)c2C(=O)C1OC1CC(OC2CC(OC3CC(C)(O)C(O)C(C)O3)C(O)C(C)O2)C(O)C(C)O1 (stereo not shown) [Analogue 59, MTMSA-Trp-Phe]	397	54	697	2.4 and < 3	1.6	1940	21	3.6	18	39	3.9	67	74	152	75	37	2.0	19	238	125	GI50 [2]: 64 nM; GI50 (HCT 116 cells): 82 nM; CMV driven luciferase expression decreased down to (CMV promoter; concentrations between 1 and 10 μM): ~75%; CMV promoter driven luciferase signal (CMV promoter): decreased; CMV promoter driven luciferase signal (CMV promoter; listed as MTMSA-Trp-Phe (59)): reduces
COC(=O)C(Cc1c[nH]c2ccccc12)NC(=O)C(OC)C1Cc2cc3cc(OC4CC(OC5CC(O)C(O)C(C)O5)C(O)C(C)O4)c(C)c(O)c3c(O)c2C(=O)C1OC1CC(OC2CC(OC3CC(C)(O)C(O)C(C)O3)C(O)C(C)O2)C(O)C(C)O1 (stereo not shown) [MTMSA-Trp (3), Mithramycin SA-Tryptophan, reference compound]	323	47	109	2.3 and 1.5	1.5	89	60	1.3	151	6	18.2	46	99	161	76	16	4.8	57	81	133	GI50 [2]: 47 nM; GI50 [5]: 32 nM; GI50 [9]: 76 nM; GI50 (HCT 116 cells): 30 nM
